Measurements published in paper PMC5365645, “Preclinical Pharmacokinetics and Pharmacodynamic Target of SCY-078, a First-in-Class Orally Active Antifungal Glucan Synthesis Inhibitor, in Murine Models of Disseminated Candidiasis” (Antimicrobial Agents and Chemotherapy, 2017).
Values after ≈ are worked out from the molar mass of the structure shown. Read-outs that look alike come from different tables or passages of the source.

Key:
in vivo = test: in vivo; design: species or system Wistar Han rats; settings: Wistar Han, rat; for half-life: t1/2
Experimental: The pharmacokinetics and bioavailability of SCY-078 were evaluated in uninfected mouse, rat, and dog after p.o. and i.v. administration. The in vivo phases of the PK studies were performed at either […] (Waltham, MA) or MPI Research (Mattawan, MI) after an Institutional Animal Care and Use Committee (IACUC) review. […] and MPI Research are Association for Assessment and Accreditation of Laboratory Animal Care International (AAALAC)-approved facilities. […] The peak concentration (Cmax), the time to maximum concentration (Tmax), the half-life, and the AUC were determined from composite mean plasma concentration-time data for rodents and individual plasma concentration-time data for dogs. All doses and plasma concentrations of SCY-078 are presented as free base. Male and female Wistar Han rats (n = 3/sex/group/time point) weighing 0.329 to 0.398 kg (males) or 0.187 to 0.244 kg (females) received a single 5-mg/kg dose of SCY-078 as an i.v. injection in the lateral tail administered over 5 min or an oral dose of 20 mg/kg as described above. Blood specimens were collected from four animals/time point/group using a sparse sampling strategy via the sublingual vein at time intervals to 72 h postdosing and processed as described above.

[1] = system: C. parapsilosis isolate CP 20519.069; design: method as in PMID 25512406; settings: cited from earlier work
in vitro = in vitro ADME; settings: human, Caco-2
Experimental: Caco-2 cell monolayers were used to assess the in vitro absorptive permeability of SCY-078 as a predictor of absorption across the gut following oral delivery. The mean apparent permeability for 5 μM SCY-078 in the apical-to-basolateral direction was 8.9 ± 0.78 ×10^−6 cm/s (89 ± 7.8 nm/s), indicating good oral absorption since in this assay permeability values of >10^−6 cm/s are considered predictive of good absorption after oral administration ([9]).
Caco2 cells (ATCC CRL-2102) were cultured in Dulbecco modified Eagle medium with the dipeptide form of L-glutamine (GlutaMAX), 10% (vol/vol) fetal bovine serum, and 1% (vol/vol) penicillin-streptomycin at 10,000 U/ml in a 75-ml flask at 37°C in a humidified atmosphere of 5% CO2. […] On the day of the assay, the cell monolayers were rinsed with transport medium (Hanks balanced salt solution with 25 mM glucose and 25 mM HEPES [MediaTech Corning, Tewksbury, MA]), and the absorptive permeation of SCY-078 was evaluated by measuring the flux from the apical to the basolateral compartments. […] The apparent permeability coefficient (Papp; cm/s) was calculated as follows: Papp = 1/A·C0 (dQ/dt), where dQ/dt is the rate of drug appearance in the basolateral compartment (μmol/s), C0 is the initial drug concentration in the donor compartment (μM), and A is the surface area of the monolayer (cm^2). […]

[2] = design: method as in ref 5 = [5]; 5. Trucksis M , Garrett G , Bautmans A , Heirman I , Laethem M , Comisar WA , Maganti L , Bi S , Iwamoto M , O'Mara E , Wagner JA , Depre M , de Hoon J 2011 A phase I multiple-rising dose study evalua; settings: single- and multiple-dose phase 1 and 2 clinical studies ref 5; cited from earlier work
C. albicans CLY18600 = test: Single delayed-dose treatment model of disseminated candidiasis; format: in vivo, mice; settings: single dose 16 h after infection, tissue burden 96 h after treatment, regression analysis
[3] = In vitro metabolic stability in hepatic microsomes; format: in vitro ADME; settings: for remaining at 0.5 h, 1 µM: read-out: % remaining after 30 min
Experimental: The metabolic stability of SCY-078 was assessed after incubation with mouse, rat, dog, and human liver microsomes (Table 2) ([10]). […] The half-lives in rodent, dog, and human liver microsomes were ≥125, ≥29, and ≥42 min, respectively.
The metabolic stability of SCY-078 was evaluated with male and female mouse, male rat, male and female dog, and mixed-gender human liver microsomes (XenoTech, Lenexa, KS). SCY-078 (1 μM) was incubated with pooled liver microsomes (0.5 mg protein/ml) for 0, 5, 10, 20, and 30 min at 37°C in the presence of NADPH. Aliquots were taken at each sampling time point and extracted with 5 volumes of ice-cold acetonitrile containing the internal standard (d9-SCY-078, 125 ng/ml). Supernatants from the incubation mixtures were analyzed for the parent compound by LC-MS/MS according to the conditions described below. The metabolic competency of microsomal preparations was established using the control compounds 7-ethoxycoumarin, propranolol, and verapamil. The in vitro intrinsic clearance (CLint), the CLint scaled to the in vivo intrinsic clearance (CL′int), and the half-life were determined for SCY-078 incubated with microsomes from each species.

[4] = both sexes, human, pooled liver microsomes, human (mixed) liver microsomes
[5] = pooled liver microsomes, male rat liver microsomes

Question: Which AUC(0-inf) (in vivo; both sexes, iv, 5 mg/kg) does the source give for `CC(C)[C@@H](C)[C@@]1(C)CC[C@]2(C)[C@H]3CC[C@@H]4[C@@]5(COC[C@@]4(C)[C@@H](OC[C@](C)(N)C(C)(C)C)[C@H](n4ncnc4-c4ccncc4)C5)C3=CC[C@@]2(C)[C@@H]1C(=O)O` [SCY-078, (1S,4aR,6aS,7R,8R,10aR,10bR,12aR,14R,15R)-15-[[(2R)-2-amino-2,3,3-trimethylbutyl]oxy]-8-[(1R)-1,2-dimethylpropyl]-14-[5-(4-pyridinyl)-1H-1,2,4-triazol-1-yl]-1,6,6a,7,8,9,10,10a,10b,11,12,12a-dodecahydro-1,6a,8,10a-tetramethyl-4H-1,4a-propano-2H-phenanthro[1,2-c]pyran-7-carboxylic acid] here?
Answer: 11700 ng·h/mL

Question: And the AUC(0-t) (in vivo; both sexes, iv, 5 mg/kg)?
Answer: 10300 ng·h/mL

Question: What about the Vd (in vivo; both sexes, iv, 5 mg/kg) of the same molecule?
Answer: 4.7 L/kg

Question: And the clearance (in vivo; both sexes, iv, 5 mg/kg)?
Answer: 7.33 mL/min/kg

Question: And the half-life (in vivo; both sexes, iv, 5 mg/kg)?
Answer: ~8.7 h

Question: What about the AUC(0-inf) (in vivo; both sexes, po, 20 mg/kg) of the same molecule?
Answer: 20800 ng·h/mL

Question: And the AUC(0-t) (in vivo; both sexes, po, 20 mg/kg)?
Answer: 16400 ng·h/mL

Question: And the Cmax (in vivo; both sexes, po, 20 mg/kg)?
Answer: 1010 ng/mL

Question: And the Tmax (in vivo; both sexes, po, 20 mg/kg)?
Answer: 8 h

Question: And the bioavailability (in vivo; both sexes, po, 20 mg/kg, Bioavailability)?
Answer: ~45%

Question: What about the half-life (in vivo; both sexes, po, 20 mg/kg) of the same molecule?
Answer: ~9.1 h

Question: What about the “Dose normalized AUC0–∞ to a 1-mg/kg dose” value (in vivo; both, iv) of the same molecule?
Answer: ~2.4 µg·h/mL

Question: What about the t1/2 (in vivo; both, iv, 5 mg/kg) of the same molecule?
Answer: 8.7 h

Question: And the MIC [1]?
Answer: 0.25 µg/mL (≈ 0.342 µM)

Question: What about the Papp at 2 h, 5 µM (in vitro) of the same molecule?
Answer: ~8.9 ×10⁻⁶ cm/s

Question: What about the Papp at 2 h, 5 μM (in vitro) of the same molecule?
Answer: 8.9 ± 0.78 ×10⁻⁶ cm/s

Question: What about the Tolerability [2] of the same molecule?
Answer: well tolerated

Question: And the “Dose achieving stasis endpoint” value (C. albicans CLY18600)?
Answer: 8.97 mg/kg

Question: And the half-life at 1 μM [3, 4]?
Answer: ≥ 0.7 h

Question: What about the microsomal CLint at 1 μM [3, 4] of the same molecule?
Answer: 34 µL/min/mg

Question: What about the remaining at 0.5 h, 1 µM ([3]; both sexes, pooled liver microsomes, human (mixed) liver microsomes) of the same molecule?
Answer: 61%

Question: What about the CLint ([3]; human (mixed) liver microsomes) of the same molecule?
Answer: 33 µL/min/mg

Question: And the remaining at 0.5 h, 1 µM ([3]; male rat liver microsomes)?
Answer: 84%

Question: And the half-life at 1 μM [3, 5]?
Answer: 2.08 h

Question: What about the microsomal CLint at 1 μM [3, 5] of the same molecule?
Answer: 11 µL/min/mg
